# Patent publication US20230413822A1, “ORAL CANINE FEED AND METHODS FOR C[…] INFESTATIONS IN A CANINE” (In the Bowl Animal Health, Inc., priority 2021, published 2023)
# Where “and” joins values, the source holds several entries; their conditions need not be identical. Identical values can stand only once.
# Key:
# [1] = Plasma concentration of mivorilaner in dogs given an oral liquid formulation daily (Example 1); format: in vivo; settings: for Mivorilaner Concentration, Average: average of 6 canines, days 0-29; for Mivorilaner Concentration: individual canines, days 0-29, 0.75 mg/kg/day
# From the text: Methods: A pool of 14 dogs are to be preliminarily infested with ˜100 unfed adult C. felis in order to produce dogs that can suitably sustain a reliable infestation rate, defined as approximately 50% fleas being live at the end of a 48-hour period. The 12 dogs with the highest live flea counts are to be selected for inclusion in the study. The dogs are to be divided into a control group and a treatment group.
# (§1) The dogs are to be housed individually during the study period and are to be fed a commercial dry dog food ration with ad libitum access to water.
# Each dog in the treatment group is to receive by mouth a liquid formulation of isoxazoline. The dosage of 0.75 mg/kg is to be administered to the dogs on each of days 0-29.
# Dogs in the control group are not to receive isoxazoline or any other tick control treatment. Each dog in the treatment group is to be offered its daily ration (dry food) and the individual doses of liquid formulation are to be administered after the individual dog has eaten at least 25% of its total daily ration. After receiving the dose of isoxazoline, the dogs are to be allowed to continue eating. This mimics incorporating the isoxazoline in feed. Each dog in the treatment group and the control group is to be experimentally infested with 50 adult ticks on test days 5, 12, 19, 28 and 35. Comb counts for live and moribund attached ticks are to be conducted on days 7, 14, 21, 30 and 37.
# [2] = Plasma concentration of mivorilaner in dogs at various daily oral doses (Example 2); format: in vivo; settings: average plasma
# From the text: Methods: A pool of 46 dogs are to be preliminarily infested with ˜50 unfed adult R. sanguineus ticks in order to produce dogs that can suitably sustain a reliable infestation rate, defined as approximately 25% of attached ticks being live at the end of a 48-hour period. The 40 dogs with the highest live attached tick counts are to be selected for inclusion in the study. The dogs are to be randomly assigned to one of a control group and 4 treatment groups.
# as §1
# Each dog in a treatment group (test groups 2-5) is to receive by mouth a liquid formulation of isoxazoline.
# Dogs in the control group are not to receive isoxazoline or any other tick control treatment. Each dog in the treatment group is to be offered its daily ration (dry food) and the individual doses of liquid formulation are to be administered after the individual dog has eaten at least 25% of its total daily ration. After receiving the dose of isoxazoline, the dogs are to be allowed to continue eating. Each dog in treatment groups 3-5 and the control group is to be experimentally infested with 50 adult ticks on test days −2, 5, 12, 19, 28, 35 and 42. Dogs in group 2 are to be infested with 50 adult ticks on test days 19, 28 and 35. Comb counts for live adult ticks are to be conducted on days 2, 7, 14, 21, 30, 37 and 44.
# Sample results of the average plasma concentration of isoxazoline in a canine's blood at different dosage levels of mivorilaner are shown in TABLE 3 and FIG. 4.
compound,measurement,setting,value
"O=C(CNC(=O)c1sc(C2=NO[C@@](c3cc(Cl)c(F)c(Cl)c3)(C(F)(F)F)C2)c2c1CCC2)NCC(F)F [Mivorilaner, 3-[(5S)-5-(3,5-dichloro-4-fluorophenyl)-5-(trifluoromethyl)-4,5-dihydroisoxazol-3-yl]-N-[2-[(2,2-difluoroethyl)amino]-2-oxoethyl]-5,6-dihydro-4H-cyclopenta[c]thiophene-1-carboxamide]","Mivorilaner Concentration, Average","[1]; Day 3, 0.75 mg/kg/day oral",674 ng/mL
same,"Mivorilaner Concentration, Average","[1]; Day 7, 0.75 mg/kg/day oral",1449 ng/mL
same,"Mivorilaner Concentration, Average","[1]; Day 14, 0.75 mg/kg/day oral",2105 ng/mL
same,"Mivorilaner Concentration, Average","[1]; Day 21, 0.75 mg/kg/day oral",2725 ng/mL
same,"Mivorilaner Concentration, Average","[1]; Day 30, 0.75 mg/kg/day oral",2628 ng/mL
same,"Mivorilaner Concentration, Average","[1]; Day 37, 0.75 mg/kg/day oral",2017 ng/mL
same,Mivorilaner Concentration,"[1]; Day 3, 0.75 mg/kg/day oral",556 ng/mL and 648 ng/mL and 579 ng/mL and 660 ng/mL
same,Mivorilaner Concentration,"[1]; Day 7, 0.75 mg/kg/day oral",1330 ng/mL and 1620 ng/mL and 994 ng/mL and 1470 ng/mL
same,Mivorilaner Concentration,"[1]; Day 14, 0.75 mg/kg/day oral",1990 ng/mL and 2530 ng/mL and 1560 ng/mL and 2120 ng/mL
same,Mivorilaner Concentration,"[1]; Day 21, 0.75 mg/kg/day oral",2750 ng/mL and 2820 ng/mL and 2450 ng/mL and 2720 ng/mL
same,Mivorilaner Concentration,"[1]; Day 30, 0.75 mg/kg/day oral",2570 ng/mL and 2890 ng/mL and 2320 ng/mL and 2600 ng/mL
same,Mivorilaner Concentration,"[1]; Day 37, 0.75 mg/kg/day oral",2070 ng/mL and 2410 ng/mL and 1880 ng/mL and 2010 ng/mL
same,Mivorilaner Concentration,"[2]; Group 2 (0.125 mg/kg/day) oral fed, 72 hours after initial dose",135.83 ng/mL
same,Mivorilaner Concentration,"[2]; Group 2 (0.125 mg/kg/day) oral fed, 120 hours after initial dose",212.63 ng/mL
same,Mivorilaner Concentration,"[2]; Group 2 (0.125 mg/kg/day) oral fed, 168 hours after initial dose",243.63 ng/mL
same,Mivorilaner Concentration,"[2]; Group 2 (0.125 mg/kg/day) oral fed, 336 hours after initial dose",383.75 ng/mL
same,Mivorilaner Concentration,"[2]; Group 2 (0.125 mg/kg/day) oral fed, 504 hours after initial dose",404.13 ng/mL
same,Mivorilaner Concentration,"[2]; Group 2 (0.125 mg/kg/day) oral fed, 720 hours after initial dose",419.50 ng/mL
same,Mivorilaner Concentration,"[2]; Group 2 (0.125 mg/kg/day) oral fed, 888 hours after initial dose",447.50 ng/mL
same,Mivorilaner Concentration,"[2]; Group 2 (0.125 mg/kg/day) oral fed, 1056 hours after initial dose",428.38 ng/mL
same,Mivorilaner Concentration,"[2]; Group 2 (0.125 mg/kg/day) oral fed, 1224 hours after initial dose",485.50 ng/mL
same,Mivorilaner Concentration,"[2]; Group 2 (0.125 mg/kg/day) oral fed, 1440 hours after initial dose",897.50 ng/mL
same,Mivorilaner Concentration,"[2]; Group 3 (0.25 mg/kg/day) oral fed, 72 hours after initial dose",283.13 ng/mL
same,Mivorilaner Concentration,"[2]; Group 3 (0.25 mg/kg/day) oral fed, 120 hours after initial dose",450.00 ng/mL
same,Mivorilaner Concentration,"[2]; Group 3 (0.25 mg/kg/day) oral fed, 168 hours after initial dose",579.13 ng/mL
same,Mivorilaner Concentration,"[2]; Group 3 (0.25 mg/kg/day) oral fed, 336 hours after initial dose",883.38 ng/mL
same,Mivorilaner Concentration,"[2]; Group 3 (0.25 mg/kg/day) oral fed, 504 hours after initial dose",877.75 ng/mL
same,Mivorilaner Concentration,"[2]; Group 3 (0.25 mg/kg/day) oral fed, 720 hours after initial dose",1015.63 ng/mL
same,Mivorilaner Concentration,"[2]; Group 3 (0.25 mg/kg/day) oral fed, 888 hours after initial dose",1003.88 ng/mL
same,Mivorilaner Concentration,"[2]; Group 3 (0.25 mg/kg/day) oral fed, 1056 hours after initial dose",945.13 ng/mL
same,Mivorilaner Concentration,"[2]; Group 3 (0.25 mg/kg/day) oral fed, 1224 hours after initial dose",1040.88 ng/mL
same,Mivorilaner Concentration,"[2]; Group 3 (0.25 mg/kg/day) oral fed, 1440 hours after initial dose",999.13 ng/mL
same,Mivorilaner Concentration,"[2]; Group 4 (0.5 mg/kg/day) oral fed, 72 hours after initial dose",474.25 ng/mL
same,Mivorilaner Concentration,"[2]; Group 4 (0.5 mg/kg/day) oral fed, 120 hours after initial dose",763.13 ng/mL
same,Mivorilaner Concentration,"[2]; Group 4 (0.5 mg/kg/day) oral fed, 168 hours after initial dose",888.00 ng/mL
same,Mivorilaner Concentration,"[2]; Group 4 (0.5 mg/kg/day) oral fed, 336 hours after initial dose",1457.88 ng/mL
same,Mivorilaner Concentration,"[2]; Group 4 (0.5 mg/kg/day) oral fed, 504 hours after initial dose",1633.25 ng/mL
same,Mivorilaner Concentration,"[2]; Group 4 (0.5 mg/kg/day) oral fed, 720 hours after initial dose",1873.75 ng/mL
same,Mivorilaner Concentration,"[2]; Group 4 (0.5 mg/kg/day) oral fed, 888 hours after initial dose",1986.25 ng/mL
same,Mivorilaner Concentration,"[2]; Group 4 (0.5 mg/kg/day) oral fed, 1056 hours after initial dose",2012.50 ng/mL
same,Mivorilaner Concentration,"[2]; Group 4 (0.5 mg/kg/day) oral fed, 1224 hours after initial dose",2318.75 ng/mL
